Experiment: excess molar enthalpy (molar enthalpy of mixing); xn = mol fraction of the nth substance listed
Conditions: 101 kPa, Liquid, Flow calorimetry

c1ccccc1 [benzene] + CCCCO
excess molar enthalpy [kcal/mol]
Conditions	298.15 K	313.15 K
x1 = 0.0494	–	0.0354
x1 = 0.0504	0.0282	–
x1 = 0.0997	0.0566	–
x1 = 0.1007	–	0.0726
x1 = 0.1497	0.0851	0.108
x1 = 0.1997	0.113	–
x1 = 0.2007	–	0.143
x1 = 0.2495	–	0.175
x1 = 0.2505	0.141	–
x1 = 0.3001	0.167	–
x1 = 0.3002	–	0.206
x1 = 0.3506	0.191	–
x1 = 0.3507	–	0.234
x1 = 0.3999	0.212	–
x1 = 0.401	–	0.26
x1 = 0.4493	–	0.28
x1 = 0.4502	0.23	–
x1 = 0.4993	–	0.297
x1 = 0.5002	0.246	–
x1 = 0.5492	–	0.31
x1 = 0.5501	0.257	–
x1 = 0.5998	0.265	–
x1 = 0.601	–	0.317
x1 = 0.6505	0.267	–
x1 = 0.6506	–	0.32
x1 = 0.7	0.264	–
x1 = 0.7001	–	0.316
x1 = 0.7495	–	0.306
x1 = 0.7503	0.256	–
x1 = 0.7996	0.242	–
x1 = 0.8007	–	0.287
x1 = 0.8497	0.22	–
x1 = 0.8498	–	0.259
x1 = 0.8996	0.185	–
x1 = 0.9007	–	0.215
x1 = 0.9495	–	0.145
x1 = 0.9504	0.129	–

Reference: the NIST ThermoML archive (doi:10.1016/j.fluid.2009.06.015)
